Results as given in patent US20250059185A1 (Hoffmann-La Roche Inc., priority 2021, published 2025).
Counter-ions that a name gives are not always drawn.

biological target: MAGL (Homo sapiens (Human), UniProt Q99685); experiment: 2-AG assay (MAGL inhibitory activity, hydrolysis of 2-arachidonoylglycerol followed by mass spectrometry); format: biochemical; conditions: 50 pM MAGL protein, 15 min pre-incubation, 30 min incubation at RT
How it was run: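 Human MAGL (50 pM final) preincubated 15 min at RT with compound (3-fold dilutions, 12.5 μM to 0.8 pM final) in 50 mM TRIS, 1 mM EDTA, 0.01% Tween-20, 2.5% DMSO. Reaction with […] 2-AG ran 30 min at RT, then was quenched with acetonitrile containing d8-arachidonic acid. Arachidonic acid measured by SPE–triple-quad MS (negative ESI), activity from the arachidonic/d8-arachidonic acid intensity ratio.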

Sequence of MAGL (Q99685 whole entry, species assumed): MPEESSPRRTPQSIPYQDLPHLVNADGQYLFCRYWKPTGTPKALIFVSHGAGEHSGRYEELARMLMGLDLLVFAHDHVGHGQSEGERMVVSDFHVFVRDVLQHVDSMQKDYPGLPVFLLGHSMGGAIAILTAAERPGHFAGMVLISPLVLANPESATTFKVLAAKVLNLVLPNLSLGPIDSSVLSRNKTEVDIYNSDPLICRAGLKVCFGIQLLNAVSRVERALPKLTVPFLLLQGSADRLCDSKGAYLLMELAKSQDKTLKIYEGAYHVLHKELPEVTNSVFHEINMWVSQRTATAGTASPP

Structure (SMILES)	IC50
C[C@@H]1c2nn(C)c(-c3cncc(C(F)(F)F)n3)c2CCN1C(=O)c1ncn(-c2ccc[nH]c2=O)n1 [Example 96, 3-[3-[(7R)-2,7-dimethyl-3-[6-(trifluoromethyl)pyrazin-2-yl]-5,7-dihydro-4H-pyrazolo[3,4-c]pyridine-6-carbonyl]-1,2,4-triazol-1-yl]-1H-pyridin-2-one]	1.26 µM
CC1c2nn(C)c(-c3cc(F)cc(F)c3)c2CCN1C(=O)c1cc(F)cc(C2=CC(Cl)C(=O)N=C2)c1Cl (centres unmarked) [Example 97, 3-chloro-5-[2-chloro-3-[3-(3,5-difluorophenyl)-2,7-dimethyl-5,7-dihydro-4H-pyrazolo[3,4-c]pyridine-6-carbonyl]-5-fluoro-phenyl]-3H-pyridin-2-one]	0.00844 µM
C[C@H]1c2nn(C)c(-c3cc(F)cc(F)c3)c2CCN1C(=O)c1cc(F)cc(C2=CC(Cl)C(=O)N=C2)c1Cl (stereo partly drawn) [Example 98, 3-chloro-5-[2-chloro-3-[(7S)-3-(3,5-difluorophenyl)-2,7-dimethyl-5,7-dihydro-4H-pyrazolo[3,4-c]pyridine-6-carbonyl]-5-fluoro-phenyl]-3H-pyridin-2-one]	0.00597 µM
C[C@@H]1c2nn(C)c(-c3cc(F)cc(F)c3)c2CCN1C(=O)c1cc(F)cc(C2=CC(Cl)C(=O)N=C2)c1Cl (stereo partly drawn) [Example 99, 3-chloro-5-[2-chloro-3-[(7R)-3-(3,5-difluorophenyl)-2,7-dimethyl-5,7-dihydro-4H-pyrazolo[3,4-c]pyridine-6-carbonyl]-5-fluoro-phenyl]-3H-pyridin-2-one]	0.767 µM
C[C@H]1c2nn(C)c(-c3cc(F)cc(F)c3)c2CCN1C(=O)c1ncn(-c2cc(Cl)cnc2O)n1 [Example 100, [1-(5-chloro-2-hydroxy-3-pyridyl)-1,2,4-triazol-3-yl]-[(7S)-3-(3,5-difluorophenyl)-2,7-dimethyl-5,7-dihydro-4H-pyrazolo[3,4-c]pyridin-6-yl]methanone]	0.0319 µM
C[C@@H]1c2nn(C)c(-c3cc(F)cc(F)c3)c2CCN1C(=O)c1ncn(-c2cc(Cl)cnc2O)n1 [Example 101, [1-(5-chloro-2-hydroxy-3-pyridyl)-1,2,4-triazol-3-yl]-[(7R)-3-(3,5-difluorophenyl)-2,7-dimethyl-5,7-dihydro-4H-pyrazolo[3,4-c]pyridin-6-yl]methanone]	3.02 µM
C[C@H]1c2nn(C)c(-c3cc(F)cc(F)c3)c2CCN1C(=O)c1cc(F)cc(CCc2cn[nH]c2)c1Cl [Example 102, [2-chloro-5-fluoro-3-[2-(JH-pyrazol-4-yl)ethyl]phenyl]-[(7S)-3-(3,5-difluorophenyl)-2,7-dimethyl-5,7-dihydro-4H-pyrazolo[3,4-c]pyridin-6-yl]methanone]	0.00153 µM
C[C@@H]1c2nn(C)c(-c3cc(F)cc(F)c3)c2CCN1C(=O)c1cc(F)cc(CCc2cn[nH]c2)c1Cl [Example 103, [2-chloro-5-fluoro-3-[2-(1H-pyrazol-4-yl)ethyl]phenyl]-[(7R)-3-(3,5-difluorophenyl)-2,7-dimethyl-5,7-dihydro-4H-pyrazolo[3,4-c]pyridin-6-yl]methanone]	0.44 µM
C[C@H]1c2nn(C)c(-c3cc(F)cc(F)c3)c2CCN1C(=O)c1cc(F)cc(CCc2c[nH]nn2)c1Cl [Example 104, [2-chloro-5-fluoro-3-[2-(JH-triazol-4-yl)ethyl]phenyl]-[(7S)-3-(3,5-difluorophenyl)-2,7-dimethyl-5,7-dihydro-4H-pyrazolo[3,4-c]pyridin-6-yl]methanone]	0.0424 µM
C[C@@H]1c2nn(C)c(-c3cc(F)cc(F)c3)c2CCN1C(=O)c1cc(F)cc(CCc2c[nH]nn2)c1Cl [Example 105, [2-chloro-5-fluoro-3-[2-(JH-triazol-4-yl)ethyl]phenyl]-[(7R)-3-(3,5-difluorophenyl)-2,7-dimethyl-5,7-dihydro-4H-pyrazolo[3,4-c]pyridin-6-yl]methanone]	0.00101 µM
CC1c2nn(C)c(-c3cc(F)cc(F)c3)c2CCN1C(=O)c1cc(F)cc(CNC2CNC(=O)C2)c1Cl (centres unmarked) [Example 106, 4-[[2-chloro-3-[3-(3,5-difluorophenyl)-2,7-dimethyl-5,7-dihydro-4H-pyrazolo[3,4-c]pyridine-6-carbonyl]-5-fluoro-phenyl]methylamino]pyrrolidin-2-one;hydrochloride]	0.0124 µM
C[C@H]1c2nn(C)c(-c3cc(F)cc(F)c3)c2CCN1C(=O)c1cc(Cl)cc(OCC2CNC(=O)O2)c1Cl (stereo partly drawn) [Example 107, 5-[[2,5-dichloro-3-[(7S)-3-(3,5-difluorophenyl)-2,7-dimethyl-5,7-dihydro-4H-pyrazolo[3,4-c]pyridine-6-carbonyl]phenoxy]methyl]oxazolidin-2-one]	0.00061 µM
C[C@H]1c2nn(C)c(-c3cc(F)cc(F)c3)c2CCN1C(=O)c1cccc(OCC2CNC(=O)O2)c1Cl (stereo partly drawn) [Example 110, 5-[[2-chloro-3-[(7S)-3-(3,5-difluorophenyl)-2,7-dimethyl-5,7-dihydro-4H-pyrazolo[3,4-c]pyridine-6-carbonyl]phenoxy]methyl]oxazolidin-2-one]	0.00209 µM
C[C@H]1c2nn(C)c(-c3cc(F)cc(F)c3)c2CCN1C(=O)c1cc(F)cc(N2CC3(CCN3)C2)c1Cl [Example 111, [2-chloro-3-(1,6-diazaspiro[3.3]heptan-6-yl)-5-fluoro-phenyl]-[(7S)-3-(3,5-difluorophenyl)-2,7-dimethyl-5,7-dihydro-4H-pyrazolo[3,4-c]pyridin-6-yl]methanone;2,2,2-trifluoroacetic acid]	0.0516 µM
C[C@H]1c2nn(C)c(-c3cc(F)cc(F)c3)c2CCN1C(=O)c1ncn(-c2ccnc(O)c2)n1 [Example 112, [(7S)-3-(3,5-difluorophenyl)-2,7-dimethyl-5,7-dihydro-4H-pyrazolo[3,4-c]pyridin-6-yl]-[1-(2-hydroxy-4-pyridyl)-1,2,4-triazol-3-yl]methanone]	1.66 µM
C[C@H]1c2nn(C)c(-c3cc(F)cc(F)c3)c2CCN1C(=O)c1cc(F)cc(OC[C@H]2CNC(=O)N2)c1Cl [Example 115, (4R)-4-[[2-chloro-3-[(7S)-3-(3,5-difluorophenyl)-2,7-dimethyl-5,7-dihydro-4H-pyrazolo[3,4-c]pyridine-6-carbonyl]-5-fluoro-phenoxy]methyl]imidazolidin-2-one]	0.00488 µM
COc1cccc(C(=O)N2CCn3c(-c4cccc(Cl)c4)nnc3[C@@H]2C)c1Cl [Example 116, (2-chloro-3-methoxy-phenyl)-[(5S)-9-(3-chlorophenyl)-5-methyl-1,4,7,8-tetrazabicyclo[4.3.0]nona-1(9),6-dien-4-yl]methanone]	2.38 µM
